Reference: US20170196859A1, “PHARMACEUTICAL COMPOSITION COMPRISING PYRAZINE CARBOXAMIDE COMPOUND AS ACTIVE INGREDIENT” (Astellas Pharma Inc., priority 2014, published 2017)

Assays:
JAK3 kinase = target: T1, JAK3 kinase (Homo sapiens, UniProt P52333); assay: JAK3 kinase inhibitory activity (QSS Assist JAK3_MSA kit); format: biochemical; conditions: 30 min preincubation, ATP 1 mM
T1 construct: purchased Carna Bioscience QSS Assist JAK3_MSA kit
T1 sequence (P52333 1-1124): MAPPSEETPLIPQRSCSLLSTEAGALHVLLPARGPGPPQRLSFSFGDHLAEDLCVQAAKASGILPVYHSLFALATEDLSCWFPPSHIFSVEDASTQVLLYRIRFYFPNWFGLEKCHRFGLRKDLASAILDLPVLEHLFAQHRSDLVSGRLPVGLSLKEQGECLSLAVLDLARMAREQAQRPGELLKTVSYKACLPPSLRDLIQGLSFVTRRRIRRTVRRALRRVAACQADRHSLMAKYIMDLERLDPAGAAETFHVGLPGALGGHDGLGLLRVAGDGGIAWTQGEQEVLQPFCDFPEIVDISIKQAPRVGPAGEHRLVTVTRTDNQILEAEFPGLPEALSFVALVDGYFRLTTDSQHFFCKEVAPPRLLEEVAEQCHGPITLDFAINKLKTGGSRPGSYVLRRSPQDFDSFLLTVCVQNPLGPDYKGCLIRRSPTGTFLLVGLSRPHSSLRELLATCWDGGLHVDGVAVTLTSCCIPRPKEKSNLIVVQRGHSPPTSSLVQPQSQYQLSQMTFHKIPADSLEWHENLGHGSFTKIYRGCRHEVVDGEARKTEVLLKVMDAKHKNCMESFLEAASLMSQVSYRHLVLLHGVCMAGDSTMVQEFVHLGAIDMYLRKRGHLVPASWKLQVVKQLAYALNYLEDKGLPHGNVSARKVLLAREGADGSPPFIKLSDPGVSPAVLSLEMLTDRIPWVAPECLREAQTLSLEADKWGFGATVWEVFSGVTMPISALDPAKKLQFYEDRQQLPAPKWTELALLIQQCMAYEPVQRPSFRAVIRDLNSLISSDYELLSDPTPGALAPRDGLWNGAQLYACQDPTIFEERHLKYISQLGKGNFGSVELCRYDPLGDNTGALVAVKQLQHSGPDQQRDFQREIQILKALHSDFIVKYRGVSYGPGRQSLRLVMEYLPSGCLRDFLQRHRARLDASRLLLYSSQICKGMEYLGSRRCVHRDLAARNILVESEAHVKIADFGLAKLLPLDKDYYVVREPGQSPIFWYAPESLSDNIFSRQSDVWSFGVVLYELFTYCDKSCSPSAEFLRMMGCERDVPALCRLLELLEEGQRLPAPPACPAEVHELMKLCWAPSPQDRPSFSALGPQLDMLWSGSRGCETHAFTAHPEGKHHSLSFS
Method: The JAK3 kinase inhibitory activity was evaluated using QSS Assist JAK3_MSA kit (Carna Bioscience).
The test compound B was dissolved in dimethyl sulfoxide (DMSO) to prepare a solution at a 100-fold concentration as compared to the test concentration. The solution was also 25-fold diluted with an appurtenant assay buffer to obtain a test compound B solution. In addition, JAK3 kinase appurtenant to the kit was used for the reaction.
5 μL of the test compound B solution at a 4-fold concentration, prepared using the aforementioned assay buffer, and 10 μL of a JAK3 kinase solution at a 2-fold concentration were mixed within a well of a 384 well plate, and incubated at room temperature for 30 minutes. Continuously, 5 μL of a substrate peptide/ATP/MgCl2 solution at a 4-fold concentration was added thereto to perform the reaction at room temperature for 1 hour. The substrate peptide was used at a final concentration of 1 μM, ATP at a final concentration of 1 mM, and MgCl2 at a final concentration of 5 mM. Thereafter, 60 μL of an appurtenant termination buffer was added thereto to stop the reaction. The JAK3 kinase activity was calculated by quantifying a product conversion ratio obtained from the substrate peptide peak height and the product (phosphorylated substrate peptide) peak height with LabChip EZ Reader II (PerkinElmer). […]

[1] = test system: human acute myeloid leukemia cell line KG-1 cells; assay: Proliferation inhibition, KG-1 cells (CellTiter-Glo); format: cell-based; conditions: KG-1, 72 h, 3 days culture
Method: KG-1 is a cell line originated from human acute myeloid leukemia and the BTK expression has been confirmed (J. Immunol. 1994; 152(2):557-565). The human acute myeloid leukemia cell line KG-1 cells (American Type Culture Collection, CCL-246) cultured in RPMI1640 medium (Sigma) containing 10% bovine serum were seeded into 96 well plates. On the next day, DMSO solutions of the test compound B at final concentrations from 1 nM to 10 μM or only DMSO (DMSO group) were added thereto to culture the cells at 37° C. in 5% CO2 for 3 days. Thereafter, the cell number was measured using a cell counting reagent (CellTiter-Glo (registered trademark) Luminescent Cell Viability Assay (Promega)). The cell proliferation inhibition rate was calculated as the measured value in the DMSO group set as 0% inhibition and the measured value in the well only with the medium on which the cells have not been seeded set as 100% inhibition.

[2] = test system: human anaplastic large cell lymphoma cell line KARPAS-299 cells; assay: Proliferation inhibition, KARPAS-299 cells (CellTiter-Glo); format: cell-based; conditions: KARPAS-299, 72 h, 3 days culture
Method: KARPAS-299 is a cell line originated from human anaplastic large cell lymphoma and the activation of JAK 3 has been confirmed (Oncogene. 2002; 21:1038-1047). The human anaplastic large cell lymphoma cell line KARPAS-299 cells (DSMZ, ACC31) cultured in RPMI1640 medium (Sigma) containing a 10% bovine serum were seeded into 96 well plates. On the same day, DMSO solution of the test compound B at a final concentrations from 1 nM to 10 μM or only DMSO (DMSO group) were added thereto to culture the cells at 37° C. in 5% CO2 for 3 days. Thereafter, the cell number was measured using a cell counting reagent (CellTiter-Glo (registered trademark) Luminescent Cell Viability Assay (Promega)). The cell proliferation inhibition rate was calculated as the measured value in the DMSO group set as 0% inhibition and the measured value in the well only with the medium on which the cells have not been seeded set as 100% inhibition.

In the case of `C=CC(=O)N1CC[C@@H](Oc2nc(Nc3ccc(N4CCC(N5CCN(C)CC5)CC4)cc3)c(C(N)=O)nc2CC)C1` [test compound B, 5-{[(3R)-1-acryloylpyrrolidin-3-yl]oxy}-6-ethyl-3-({4-[4-(4-methylpiperazin-1-yl)piperidin-1-yl]phenyl}amino)pyrazine-2-carboxamide monomethanesulfonate], the IC50 (JAK3 kinase) is reported as 0.44 nM, the IC50 [1] is reported as 38 nM and the IC50 [2] is reported as 250 nM.
